Source: patent US20150216794A1, “METHODS OF TREATING PAIN ASSOCIATED WITH OSTEOARTHRITIS OF A JOINT WITH A TOPICAL FORMULATION OF A SPIRO-OXINDOLE COMPOUND” (IVAX International GmbH, priority 2014, published 2015)
Values joined by “and” are separate entries in the source; they are usually repeats but may differ in a detail not shown here. Identical values can stand only once.

Key:
[1] = minipig: metabolite profile of urine and bile (UPLC); assay type: in vivo, Göttingen minipig; settings: none consistent with spiro-oxindole compound
From the text: Attempts to separate radioactive components using HPLC with radioactivity detection present in plasma, liver and excreta were unsuccessful due to low radioactivity levels in samples submitted for further analysis.

[2] = test system: complete Freund's adjuvant (CFA) model of inflammatory pain; assay: CFA model of inflammatory pain; assay type: in vivo, rat; settings: topical, dose-response; model not restated (follows CFA paragraph)
NaV1.7 = NaV1.7 (Homo sapiens, UniProt Q15858); assay: block of NaV1.7 (inactivated vs resting state); assay type: biochemical
NaV1.7, sequence (Q15858 whole entry): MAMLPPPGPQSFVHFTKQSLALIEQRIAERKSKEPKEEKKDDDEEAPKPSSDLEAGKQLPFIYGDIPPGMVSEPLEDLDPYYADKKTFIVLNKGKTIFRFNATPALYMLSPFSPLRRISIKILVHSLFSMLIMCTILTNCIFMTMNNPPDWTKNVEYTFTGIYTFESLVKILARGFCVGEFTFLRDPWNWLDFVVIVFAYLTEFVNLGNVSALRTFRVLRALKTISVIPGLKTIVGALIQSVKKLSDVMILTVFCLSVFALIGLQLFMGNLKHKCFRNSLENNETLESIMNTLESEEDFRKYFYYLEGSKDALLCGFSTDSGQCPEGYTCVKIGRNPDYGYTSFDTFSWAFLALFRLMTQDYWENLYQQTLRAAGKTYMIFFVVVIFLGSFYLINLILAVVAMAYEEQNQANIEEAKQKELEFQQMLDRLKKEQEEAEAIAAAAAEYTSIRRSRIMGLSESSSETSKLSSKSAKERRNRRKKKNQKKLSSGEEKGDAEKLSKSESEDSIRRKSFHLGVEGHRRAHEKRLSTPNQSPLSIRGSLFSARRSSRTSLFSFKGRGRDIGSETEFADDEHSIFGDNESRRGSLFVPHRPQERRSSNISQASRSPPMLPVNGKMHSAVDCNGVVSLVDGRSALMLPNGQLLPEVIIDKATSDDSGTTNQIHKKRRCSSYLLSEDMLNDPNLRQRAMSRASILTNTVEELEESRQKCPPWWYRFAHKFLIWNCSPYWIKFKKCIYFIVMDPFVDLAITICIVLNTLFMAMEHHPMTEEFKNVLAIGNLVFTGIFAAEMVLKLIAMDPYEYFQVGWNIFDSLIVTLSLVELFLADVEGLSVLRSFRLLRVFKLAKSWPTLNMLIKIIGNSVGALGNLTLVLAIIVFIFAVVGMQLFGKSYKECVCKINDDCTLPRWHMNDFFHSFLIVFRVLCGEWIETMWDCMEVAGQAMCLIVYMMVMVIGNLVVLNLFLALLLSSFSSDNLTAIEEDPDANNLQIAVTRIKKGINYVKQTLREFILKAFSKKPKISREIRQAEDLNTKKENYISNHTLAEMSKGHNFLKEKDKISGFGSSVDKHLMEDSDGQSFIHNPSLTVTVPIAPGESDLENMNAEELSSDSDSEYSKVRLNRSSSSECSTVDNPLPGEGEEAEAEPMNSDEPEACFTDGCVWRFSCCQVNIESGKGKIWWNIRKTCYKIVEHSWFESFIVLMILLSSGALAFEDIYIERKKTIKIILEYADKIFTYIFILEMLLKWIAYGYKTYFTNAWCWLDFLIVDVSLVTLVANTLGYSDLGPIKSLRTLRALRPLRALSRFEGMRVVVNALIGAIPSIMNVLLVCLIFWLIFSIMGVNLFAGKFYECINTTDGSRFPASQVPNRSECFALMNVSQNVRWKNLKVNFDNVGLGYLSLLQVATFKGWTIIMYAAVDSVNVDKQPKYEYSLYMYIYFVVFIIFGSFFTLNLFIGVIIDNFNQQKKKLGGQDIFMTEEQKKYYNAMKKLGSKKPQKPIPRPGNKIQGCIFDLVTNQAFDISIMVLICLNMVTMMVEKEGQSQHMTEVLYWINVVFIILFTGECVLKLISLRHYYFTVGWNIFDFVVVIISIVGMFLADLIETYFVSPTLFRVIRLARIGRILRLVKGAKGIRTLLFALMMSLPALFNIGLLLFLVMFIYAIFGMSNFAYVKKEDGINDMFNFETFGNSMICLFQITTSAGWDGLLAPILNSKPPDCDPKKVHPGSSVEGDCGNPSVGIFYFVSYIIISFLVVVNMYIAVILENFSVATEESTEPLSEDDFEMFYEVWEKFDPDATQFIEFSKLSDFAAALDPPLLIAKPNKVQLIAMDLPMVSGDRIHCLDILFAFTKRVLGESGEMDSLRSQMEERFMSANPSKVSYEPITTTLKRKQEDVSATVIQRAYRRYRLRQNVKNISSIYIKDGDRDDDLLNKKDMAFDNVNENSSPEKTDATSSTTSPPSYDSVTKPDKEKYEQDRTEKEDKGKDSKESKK
From the text: NaV1.7 is expressed primarily in the peripheral nervous system in both sensory and sympathetic neurons (Raymond, C. K., et al., op. cit.). Loss-of-function mutations in SCN9A (the gene encoding the alpha subunit of the NaV1.7 sodium channel) cause a human condition known as congenital indifference to pain characterized by an inability to perceive pain (Cox, J. J., et al., Nature (2006), 444:894-98; Goldberg, Y. P., et al., Clin Genet (2007), 71:311-9). Gain-of-function mutations in SCN9A are associated with inherited erythromelalgia (IEM) (Drenth, J. P., et al., J Invest Dermatology (2005), 124:1333-8), which is characterized by spontaneous or easily evoked severe pain. Furthermore, up to 29% of biopsy-proven cases of idiopathic small-fiber neuropathy manifesting mainly as distal severe pain (Faber, C. G., et al., Ann Neurol (2012), 71:26-39) are associated with gain-of-function NaV1.7 channel mutations.

[3] = domestic pig joint penetration: concentration in synovial membrane; assay type: in vivo
Description: This study was conducted to evaluate the joint penetration, systemic plasma exposure and tissue distribution of the spiro-oxindole compound in domestic pigs following topical administration of a pharmaceutical composition utilized in the methods of the invention. Fifteen female pigs were used in this study with three pigs in each group. Beginning on Day 1, a pharmaceutical composition of the invention was topically applied to the left radiocarpal joint (carpus) and tibiotarsal joint (hock) twice daily (bid) for 17 days (34 applications) for Groups 1-4 and once daily (qd) for 17 days (17 applications) for Group 5. Pre-dose blood samples (prior to morning dosing) was collected on Days 2, 7, 10, 14 and 17. A full pharmacokinetic sampling was performed on Day 17 (post am dosing) at the following time points: 1, 2, 4, 8 and 12 hr. On the day of necropsy, Day 18, blood was collected prior to euthanasia, each pig was humanely euthanized and dorsal skin and muscle, liver, kidney, heart, lung, brain, intestine, fat, ovaries, urinary bladder, sciatic nerve, and skin, muscle, synovial membrane, and synovial fluid from all 4 joints (2 treated, left carpus and hock, and 2 untreated, right carpus and hock) was collected.
Doses were calculated by measuring the joint circumference and joint width (to include ˜2 cm above and below the joint) to calculate the total surface area for each individual dose. Group 1 received a 2% pharmaceutical composition of the invention and the dose volume for Group 1 was calculated using the total surface area and the designated dose volume of 3 μL/cm^2. The total dose volume was then converted from μL to mL to estimate the dose weight in grams, based on the composition density of 1 g/cm^3. Following is an example (not actual measurements) of calculating the dose:
For Groups 2-5, the dose volume was calculated using the total surface area and the designated dose volume of 3 μL/cm^2 (Groups 2, 3 and 5) or 1 μL/cm^2 (Group 4). The total dose volume was then converted from μL to mL to estimate the dose length in centimeters of a ribbon of the pharmaceutical composition when squeezed from a glaminate tube onto a metal metric ruler, based on the composition length-weight relationship of 1 cm of pharmaceutical composition being equal to 0.5 g of the composition (diameter of the tube opening was 0.87 cm).
The test compositions were topically applied an equal distance above and below the center of the joint, i.e., inter-carpal joint space (carpus) and inter-tarsal joint space (hock) of each animal to allow for complete coverage of the joint, including approximately 2 cm above and below the edges of the joint. The test composition was applied to the entire circumference of the designated area. All animals were dosed using the same distance above and below each joint center for consistency.
The dose volume (μL/cm^2) for the test pharmaceutical compositions was 3.0 μL/cm^2 for Groups 1, 2, 3 and 5 and 1.0 μL/cm^2 for Group 4.
The following tissue samples were collected after euthanasia: • Dorsal skin and muscle (from the mid-back) • Liver—Left Medial Lobe • Kidney—Right • Heart • Lung—Right diaphragmatic lobe • Brain—Right cerebral hemisphere • Intestine—mid-jejunum • Duodenum (10-15 cm length) from all 6 animals in Groups 1 and 2 • Fat • Ovary—Right • Urinary bladder • Sciatic nerve from both legs • Skin, muscle underlying site of administration and synovial membrane of all 4 joints (treated left carpus and hock and untreated right carpus and hock)

- radioactive peaks observed by UPLC ([1]; bile (gall bladder contents)): another two peaks
- radioactive peaks observed by UPLC ([1]; urine): two distinct peaks
- potency of the block, inactivated state compared with resting state (NaV1.7; NaV1.7): approximately 220 fold
- IC50 (NaV1.7; inactivated state): 0.05 µM
- IC50 (NaV1.7; resting state): 11.3 µM
- concentration in synovial membrane tissue, individual animals ([3]; G1 (#1-#3): 2% composition, 3.0 μL/cm^2 bid 17 days, Untreated right carpus): 70.83 ng/g and 84.97 ng/g and 44.47 ng/g
- concentration in synovial membrane tissue, individual animals ([3]; G1 (#1-#3): 2% composition, 3.0 μL/cm^2 bid 17 days, Untreated right hock): 97.22 ng/g and 33.16 ng/g and 41.19 ng/g
- concentration in synovial membrane tissue, individual animals ([3]; G2 (#4-#6): 4% composition, 3.0 μL/cm^2 bid 17 days, Untreated right hock): 92.75 ng/g and 69.80 ng/g and 98.28 ng/g
- concentration in synovial membrane tissue, individual animals ([3]; G4 (#10-#12): 8% composition, 1.0 μL/cm^2 bid 17 days, Untreated right hock): 26.20 ng/g and 0.00 ng/g and 45.29 ng/g
- concentration in synovial membrane tissue, individual animals ([3]; G5 (#13-#15): 8% composition, 3.0 μL/cm^2 qd 17 days, Untreated right carpus): 11.61 ng/g and 25.25 ng/g and 79.58 ng/g
- concentration in synovial membrane tissue, individual animals ([3]; G5 (#13-#15): 8% composition, 3.0 μL/cm^2 qd 17 days, Untreated right hock): 18.69 ng/g and 37.98 ng/g and 21.70 ng/g
- concentration in synovial membrane tissue of treated joint (in words) ([3]; domestic pig, topical administration to a joint): micromolar concentrations
SMILES: O=C1N(Cc2ccc(C(F)(F)F)o2)c2ccccc2[C@]12COc1cc3c(cc12)OCO3 [spiro-oxindole compound, (S)-1′-{[5-(trifluoromethyl)furan-2-yl]methyl}spiro[furo[2,3-f][1,3]benzodioxole-7,3′-indol]-2′(1′H)one]
- dose with greatest effect (highest dose tested) [2]: 8 % (w/w)
- minimum effective dose [2]: 2 % (w/w)
- concentration in synovial membrane tissue, individual animals ([3]; G1 (#1-#3): 2% composition, 3.0 μL/cm^2 bid 17 days, Treated left carpus): 126.88 ng/g and 56.86 ng/g and 105.89 ng/g
- concentration in synovial membrane tissue, individual animals ([3]; G1 (#1-#3): 2% composition, 3.0 μL/cm^2 bid 17 days, Treated left hock): 152.13 ng/g and 38.86 ng/g and 54.04 ng/g
- concentration in synovial membrane tissue, individual animals ([3]; G2 (#4-#6): 4% composition, 3.0 μL/cm^2 bid 17 days, Treated left carpus): 72.14 ng/g and 269.82 ng/g and 183.72 ng/g
- concentration in synovial membrane tissue, individual animals ([3]; G2 (#4-#6): 4% composition, 3.0 μL/cm^2 bid 17 days, Treated left hock): 132.05 ng/g and 95.93 ng/g and 131.87 ng/g
- concentration in synovial membrane tissue, individual animals ([3]; G2 (#4-#6): 4% composition, 3.0 μL/cm^2 bid 17 days, Untreated right carpus): 114.15 ng/g and 100.42 ng/g and 129.30 ng/g
- concentration in synovial membrane tissue, individual animals ([3]; G3 (#7-#9): 8% composition, 3.0 μL/cm^2 bid 17 days, Treated left carpus): 708.62 ng/g and 737.86 ng/g and 137.46 ng/g
- concentration in synovial membrane tissue, individual animals ([3]; G3 (#7-#9): 8% composition, 3.0 μL/cm^2 bid 17 days, Treated left hock): 252.46 ng/g and 576.83 ng/g and 1917.93 ng/g
- concentration in synovial membrane tissue, individual animals ([3]; G3 (#7-#9): 8% composition, 3.0 μL/cm^2 bid 17 days, Untreated right carpus): 54.19 ng/g and 185.83 ng/g and 130.63 ng/g
- concentration in synovial membrane tissue, individual animals ([3]; G3 (#7-#9): 8% composition, 3.0 μL/cm^2 bid 17 days, Untreated right hock): 82.74 ng/g and 737.82 ng/g and 167.55 ng/g
- concentration in synovial membrane tissue, individual animals ([3]; G4 (#10-#12): 8% composition, 1.0 μL/cm^2 bid 17 days, Treated left carpus): 49.99 ng/g and 59.22 ng/g and 159.68 ng/g
- concentration in synovial membrane tissue, individual animals ([3]; G4 (#10-#12): 8% composition, 1.0 μL/cm^2 bid 17 days, Treated left hock): 291.56 ng/g and 38.32 ng/g and 3171.10 ng/g
- concentration in synovial membrane tissue, individual animals ([3]; G4 (#10-#12): 8% composition, 1.0 μL/cm^2 bid 17 days, Untreated right carpus): 34.85 ng/g and 1772.86 ng/g and 46.92 ng/g
- concentration in synovial membrane tissue, individual animals ([3]; G5 (#13-#15): 8% composition, 3.0 μL/cm^2 qd 17 days, Treated left carpus): 702.22 ng/g and 150.00 ng/g and 35.31 ng/g
- concentration in synovial membrane tissue, individual animals ([3]; G5 (#13-#15): 8% composition, 3.0 μL/cm^2 qd 17 days, Treated left hock): 31.44 ng/g and 100.00 ng/g and 55.90 ng/g
